Values of other authors as cited in patent US20230310429A1, “FORMULATIONS FOR REDUCING HAIR LOSS AND/OR INCREASING HAIR REGROWTH” (TRIPLE HAIR INC., priority 2020, published 2023).
Read-outs that look alike come from different tables or passages of the source.

Tests used:
[1] = not given; remark: listed apart in the source
[2] = not given; remark: listed apart in the source
[3] = tested on: prostaglandin endoperoxide synthase-1 (PGHS-1); details: oxygen consumption in PGE2 production; Michelet et al. 1997
regrowth of the hair = details: topical

Structure (SMILES) | solubility (in words) (0.1N HCl) | solubility (in words) (0.1N NaOH) | solubility (in words) (DMSO) | solubility (in words) (chloroform) | solubility (in words) (ethanol) | solubility (in words) (methanol) | solubility (in words) (n-propanol) | solubility (in words) (polyethylene glycol 400) | solubility (in words) (propylene glycol) | solubility (in words) (water) | other adverse effects ([1]; in vivo) | side effect on periocular hair and eyelashes ([1]; ophthalmic use) | solubility (in words) (acetone) | solubility (in words) (acetonitrile) | solubility (in words) (ethyl acetate) | solubility (in words) (isopropanol) | solubility (in words) (octanol) | pKa [2] | activation of purified PGHS-1 [3] | effective in promoting regrowth of the hair (regrowth of the hair)
CC(C)(C)NC(=O)[C@H]1CC[C@H]2[C@@H]3CC[C@H]4NC(=O)C=C[C@]4(C)[C@H]3CC[C@]12C [Finasteride, ((5α,17β)-N-(1,1-Dimethylethyl)-3-oxo-4-azaandrost-1-ene-17-carboxamide)] | very slightly soluble | very slightly soluble | freely soluble | freely soluble | freely soluble | freely soluble | freely soluble | sparingly soluble | sparingly soluble | not soluble |  |  |  |  |  |  |  |  |  | 
CC(C)OC(=O)CCC/C=C\C[C@@H]1[C@@H](CC[C@@H](O)CCc2ccccc2)[C@H](O)C[C@@H]1O [Latanoprost] |  |  |  |  | freely soluble | freely soluble |  |  |  | practically insoluble | erythema, folliculitis, sensation of burning and erysipelas | augmentation of periocular hirsuteness | freely soluble | very soluble | freely soluble | freely soluble | freely soluble |  |  | 
Nc1cc(N2CCCCC2)nc(N)[n+]1[O-] [Minoxidil, (6-(1-pipedidinyl)-2,4-pyrimidinediamine 3-oxide)] |  |  |  |  |  |  |  |  |  |  |  |  |  |  |  |  |  | 4.61 | potent activator | less than 40%
